Assay results: patent US9937235B2, “Lipidated peptides as anti-obesity agents” (USTAV ORGANICKE CHEMIE A BIOCHEMIE AKADEMIE VED CR, V.V.I, priority 2012, dated 2018)
Where a SMILES comes first, the peptide text is derived from it. [ ]: non-standard residue; d: D form. The star is where a group is joined. Palmitoyl = CCCCCCCCCCCCCCCC(=O)*; Myristoyl = CCCCCCCCCCCCCC(=O)*; Nle = CCCC[C@H](N)C(=O)O; Dap = NC[C@H](N)C(=O)O

Experiments:
[1] = system: Fos immunoreactivity in Arc, PVN and NTS; assay: Fos immunohistochemistry after SC administration; assay type: in vivo, mouse; settings: 90 minutes after SC 5 mg/kg, fasted mice
Protocol: For Fos immunohistochemical processing, overnight fasted mice (n=5 mice/group) were treated SC with saline, [Dpr^1]PrRP31, [Dpr(oct)^1]PrRP31, [Dpr(myr)^1]PrRP31 or [Dpr(palm)^1]PrRP31 (dose 5 mg/kg). Ninety minutes after SC injection, the mice were deeply anesthetized with pentobarbital (50 mg/kg, IP) and perfused transcardially with 0.1 M phosphate buffer (PB, pH 7.4) containing 4% paraformaldehyde, 0.1% glutaraldehyde, and 10% picric acid (w/w). Then the brains were removed, postfixed in the same fixative overnight at 4° C., and infiltrated with 30% sucrose in 0.1 M PB for 48 h at 4° C. Before sectioning, the brains were rapidly (20 sec) frozen in cold isopentane (−30/−40° C.) and placed into a Reichert cryocut device adjusted to −16° C. for 1 h. 30 μm coronal sections were cut from the brains and collected as free floating in cold (4° C.) PB. […]
An identical set of mice was used for determination of Fos immunoreactivity in NTS, PVN, and Arc. […] Quantitative assessment was performed from the images captured with a Canon digital camera (PowerShot S40) and Leica DMLS light microscope in a computer screen obtained from 5-6 brain sections per animal. […] The counting of Fos-positive neurons was done under blinded conditions (the counted slides from each animal were analyzed independently and randomly and encoded by other person).

[2] = biological target: T1, rat PrRP receptor (GPR10) in RC-4B/C cells (Rattus norvegicus, UniProt Q64121); assay: Competitive binding to rat pituitary RC-4B/C cells; settings: ^125I-rat PrRP31, RC-4B/C cells
T1 construct: host or cells: RC-4B/C rat pituitary cell line
T1 sequence (Q64121 1-370): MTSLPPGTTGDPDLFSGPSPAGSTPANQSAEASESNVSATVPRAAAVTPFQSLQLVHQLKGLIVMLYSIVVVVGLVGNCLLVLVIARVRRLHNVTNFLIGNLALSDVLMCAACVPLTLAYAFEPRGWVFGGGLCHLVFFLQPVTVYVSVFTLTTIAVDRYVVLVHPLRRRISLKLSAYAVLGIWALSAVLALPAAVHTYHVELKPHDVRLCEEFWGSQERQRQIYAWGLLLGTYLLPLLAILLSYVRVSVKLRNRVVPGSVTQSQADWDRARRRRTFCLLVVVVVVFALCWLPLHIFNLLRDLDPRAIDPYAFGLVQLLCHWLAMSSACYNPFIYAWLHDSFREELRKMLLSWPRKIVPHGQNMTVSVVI

SMILES | Neural activity, Fos immunoreactivity [1] | % of PrRP31 binding [2]
CCCCCCCCCCCCCC(=O)NC[C@H](N)C(=O)N[C@@H](CCCNC(=N)N)C(=O)N[C@@H](C)C(=O)N[C@@H](Cc1c[nH]cn1)C(=O)N[C@@H](CCC(N)=O)C(=O)N[C@@H](Cc1c[nH]cn1)C(=O)N[C@@H](CO)C(=O)N[C@@H](CCCC)C(=O)N[C@@H](CCC(=O)O)C(=O)N[C@H](C(=O)N[C@@H](CCCNC(=N)N)C(=O)N[C@H](C(=O)N1CCC[C@H]1C(=O)N[C@@H](CC(=O)O)C(=O)N[C@H](C(=O)N[C@@H](CC(N)=O)C(=O)N1CCC[C@H]1C(=O)N[C@@H](C)C(=O)N[C@@H](Cc1c[nH]c2ccccc12)C(=O)N[C@@H](Cc1ccc(O)cc1)C(=O)N[C@H](C(=O)NCC(=O)N[C@@H](CCCNC(=N)N)C(=O)NCC(=O)N[C@H](C(=O)N[C@@H](CCCNC(=N)N)C(=O)N1CCC[C@H]1C(=O)N[C@H](C(=O)NCC(=O)N[C@@H](CCCNC(=N)N)C(=O)N[C@@H](Cc1ccccc1)C(N)=O)C(C)C)[C@@H](C)CC)[C@@H](C)O)[C@@H](C)CC)[C@@H](C)O)[C@@H](C)O [Analog 5] (H-[Dap](Myristoyl)RAHQHS[Nle]ETRTPDINPAWYTGRGIRPVGRF-NH2) | significantly increased | 601%
CCCCCCCCCCCCCCCC(=O)NC[C@H](N)C(=O)N[C@@H](CCCNC(=N)N)C(=O)N[C@@H](C)C(=O)N[C@@H](Cc1c[nH]cn1)C(=O)N[C@@H](CCC(N)=O)C(=O)N[C@@H](Cc1c[nH]cn1)C(=O)N[C@@H](CO)C(=O)N[C@@H](CCCC)C(=O)N[C@@H](CCC(=O)O)C(=O)N[C@H](C(=O)N[C@@H](CCCNC(=N)N)C(=O)N[C@H](C(=O)N1CCC[C@H]1C(=O)N[C@@H](CC(=O)O)C(=O)N[C@H](C(=O)N[C@@H](CC(N)=O)C(=O)N1CCC[C@H]1C(=O)N[C@@H](C)C(=O)N[C@@H](Cc1c[nH]c2ccccc12)C(=O)N[C@@H](Cc1ccc(O)cc1)C(=O)N[C@H](C(=O)NCC(=O)N[C@@H](CCCNC(=N)N)C(=O)NCC(=O)N[C@H](C(=O)N[C@@H](CCCNC(=N)N)C(=O)N1CCC[C@H]1C(=O)N[C@H](C(=O)NCC(=O)N[C@@H](CCCNC(=N)N)C(=O)N[C@@H](Cc1ccccc1)C(N)=O)C(C)C)[C@@H](C)CC)[C@@H](C)O)[C@@H](C)CC)[C@@H](C)O)[C@@H](C)O [Analog 6] (H-[Dap](Palmitoyl)RAHQHS[Nle]ETRTPDINPAWYTGRGIRPVGRF-NH2) | significantly increased | 1072%
